Assay [1] addresses T1, cS1P2 receptor (Canis lupus familiaris, UniProt A0A8I3P3I1). The assay can be described thus: S1P ligand binding assay with transfected CHO cells expressing the cS1P2 receptor. Further details: species or system Canis (dog). The following applies: 33P-S1P binding to CHO cells expressing cS1P2, 60 minutes at room temperature; read-out: EC50 (S1P ligand binding, FIG. 3). On the procedure:
The transfected CHO cells from Example 2 expressing the cS1P2 receptor were evaluated for the ability of the cS1P2 receptor expressed in the cells to properly integrate into the cell membrane and bind SIP.
Transfected CHO cells from Example 2 were harvested with enzyme-free dissociation solution (Specialty Media, Lavallette, N.J.). The cells were washed once in cold PBS and suspended in SIP binding buffer (50 mM HEPES-Na, pH 7.5, 5 mM MgCl2, 1 mM CaCl2, 0.5% FAF-BSA). ^33P-S1P was synthesized enzymatically from γ^33P-ATP and sphingosine using a crude extract with sphingosine kinase activity in a reaction mix containing 50 mM KH2PO4, 1 mM mercaptoethanol, 1 mM Na3VO4, 25 mM KF, 2 mM semicarbazide, 1 mM Na2EDTA, 5 mM MgCl2, […], 0.1% TritonX-114, and 1 mCi γ^33P-ATP (NEN; specific activity 2000 Ci/mnol). Reaction products were extracted with butanol and ^33P-S1p was purified by HPLC.
^33P-S1P (0.1 uCi/ml) was sonicated with 0.2 nM S1P dissolved in binding buffer; 100 μL of the mixture was added to 100 μL cells (1×10^5). Binding was performed for 60 minutes at room temperature. […] After drying the filter plates for 30 minutes, 50 μL of MICROSCINT 20 was added to each well and binding was measured with a Packard Top Count. Non-specific binding was defined as the amount of radioactivity remaining in the presence of 200 nM cold S1P.

In assay [2] the target is T1, cS1P2 receptor. The assay can be described thus: 35S-GTPγS binding assay with membranes from transfected CHO cells. The class given is biochemical, Canis (dog). The following applies: membranes of cS1P2-transfected CHO cells, 5 μM GDP, 100 pM 35S-GTPγS, one hour at room temperature; read-out: EC50 (35S-GTPγS binding, FIG. 4). The method, then: Functional coupling of the cS1P2 receptor to G proteins was measured in a ^35S-GTPγS binding assay. Membranes were prepared from transfected cells by homogenization in ice cold 20 mM HEPES pH 7.4, 10 mM EDTA using a Kinematica polytron (setting 5, for 10 seconds). Homogenates were centrifuged at 48,000×g for 15 minutes at 4° C. and the pellet suspended in 20 mM HEPES pH 7.4, 0.11 mM EDTA. Following a second centrifugation, the final pellet was suspended in 20 mM HEPES pH 7.4, 100 mM NaCl, 10 mM MgCl2. Membranes were incubated in 200 μL with 5 μM GDP, various concentrations of SIP (sonicated in 1% BSA), and 100 pM ^35S-GTPγS (NEN; specific activity 1250 Ci/mmol) in 96 well microtiter dishes. Binding was performed for one hour at room temperature, and terminated by harvesting the membranes onto GF/B filter plates with a Packard Filtermate Universal Harvester. After drying the filter plates for 30 min, 40 μL of MICROSCINT 20 was added to each well and binding was measured on a Packard Top Count scintillation counter.

For the compound `CCCCCCCCCCCCC/C=C/[C@@H](O)[C@@H](N)COP(=O)(O)O` [S1P, sphingosine-1-phosphate], the concentration giving a half-maximal response (EC50) was around 5.7 nM on cS1P2 receptor [1] and around 0.8 nM on cS1P2 receptor [2].

By EC50 is commonly meant the concentration that produces a half-maximal response.

The record behind these values is patent US20090202987A1, “Canis sphingosine 1-phosphate receptor isoform 2” (priority 2004, published 2009).
